Reference: patent US6660718B1, “3-modified leucomycin derivatives” (Meiji Seika Kaisha, Ltd., priority 1999, dated 2003)
Values after ≈ are worked out from the molar mass of the structure shown.

Legend:
[1] = test system: Haemophilus influenzae 9334; assay: Antibacterial activity test (agar dilution MIC); assay type: cell-based; conditions: agar plates, 37° C., about 20 hours
Description: (§1) In vitro antibacterial activities of the compounds of Examples 3, 5, 20, 23, 25 and 48 were determined as follows by referring to the standard method of the Japanese Society of Chemotherapy (Chemotherapy, 29, pp.76-79, 1981). For comparison, antibacterial activities of rokitamycin (RKM), leucomycin-A7 (LM-A7) and the compound described in U.S. Pat. No. 5,407,918, Example 7 were determined in the same manner.
(§2) For a solution of each test drug dissolved in methanol at 5000 μg/ml, a series of 2-fold dilutions were prepared. 200 μl of each solution of the test drug was added in a petri dish, added with 10 ml of agar medium for susceptibility measurement supplemented with 5% of sterile horse defibrinated blood, 15 μg/ml of β-nicotinamide adenine dinucleotide and 5 μg/ml of Hemin, and then mixed to prepare agar plates containing the test drug. A given volume of a culture broth for susceptibility measurement, which was prepared to contain a given cell numbers of bacteria to be tested, was inoculated to the agar plates containing the test drug by using a micro planter (Sakuma Seisakusho). After the inoculation, cultivation was carried out at 37° C. for about 20 hours. After the culture, presence or absence of the growth of the test bacteria on the plates was observed by visual inspection, and the minimum concentration at which no growth was observed was determined as minimum inhibitory concentration (MIC) of each test drug for each of the test bacteria The results are shown in Tables 1-1, 1-2 and 1-3.

[2] = test system: Micrococcus luteus ATCC9341; assay: Antibacterial activity test (agar dilution MIC); assay type: cell-based; conditions: agar plates, 37° C., about 20 hours
Description: as §1, §2

[3] = test system: Moraxella catarrhalis W-0500; assay: Antibacterial activity test (agar dilution MIC); assay type: cell-based; conditions: 37° C., about 20 hours; for Minimum inhibitory concentration (MIC): agar plates
Description: as §1, §2

[4] = test system: Staphylococcus aureus 209P JC-1; assay: Antibacterial activity test (agar dilution MIC); assay type: cell-based; conditions: agar plates, 37° C., about 20 hours
Description: as §1, §2

[5] = test system: Staphylococcus aureus MS15027 (ermC methylase); assay: Antibacterial activity test (agar dilution MIC); assay type: cell-based; conditions: for Minimum inhibitory concentration (MIC): Staphylococcus aureus MS15027 (ermC methylase), agar plates, 37° C., about 20 hours
Description: as §1, §2

[6] = test system: Streptococcus pneumoniae DP1 TypeI; assay: Antibacterial activity test (agar dilution MIC); assay type: cell-based; conditions: agar plates, 37° C., about 20 hours
Description: as §1, §2

[7] = test system: Streptococcus pneumoniae PRC-53 (mefE efflux); assay: Antibacterial activity test (agar dilution MIC); assay type: cell-based; conditions: for Minimum inhibitory concentration (MIC): Streptococcus pneumoniae PRC-53 (mefE efflux), agar plates, 37° C., about 20 hours
Description: as §1, §2

[8] = test system: Streptococcus pyogenes Cook; assay: Antibacterial activity test (agar dilution MIC); assay type: cell-based; conditions: agar plates, 37° C., about 20 hours
Description: as §1, §2

[9] = assay type: in vitro ADME; conditions: 4 h
Description: Stability of the compound of Example 3 in plasma was studied as follows. Stability of RKM in plasma was also studied in the same manner for comparison. Blood was collected from rat ventral aorta and centrifuged (3000 rpm, 15 minutes) to separate plasma. 10 μl of a solution of a test drug dissolved in methanol at a concentration of 1600 μg/ml was added to 190 μl of the rat plasma and reacted at 37° C. At the start of the reaction and after 1, 2 and 4 hours, a part of the reaction mixture was collected and added with a given volume of an acetonitrile solution to prepare a bioassay sample for measurement of test medicament concentration. […] After the incubation, the diameter of the ring by growth inhibition of Micrococcus luteus ATCC9341 observed around the paper disc was measured by using a digital caliper. […] Based on a calibration curve obtained from concentrations of the standard solutions and diameters of growth inhibition rings, concentrations of the test drug in the samples at several time points were calculated, and then, by using the calculated remaining concentrations of the test drug in the samples at the time points, ratios of activity (%) based on the concentration at the start of the reaction, which was taken as 100%, were calculated. […]

[10] = test system: Gram-positive bacteria; assay: Antibacterial activity test, overall comparison; assay type: cell-based; conditions: for enhancement of the antibacterial activity compared to RKM and LM-A7: comparison of MIC values of Tables 1-1 and 1-2
Description: as §1, §2

[11] = test system: Streptococcus pneumoniae IP692; assay: Antibacterial activity test (agar dilution MIC); assay type: cell-based; conditions: agar plates, 37° C., about 20 hours
Description: as §1, §2

[12] = test system: Streptococcus pneumoniae PRC-91 (ermAM methylase); assay: Antibacterial activity test (agar dilution MIC); assay type: cell-based; conditions: agar plates, 37° C., about 20 hours
Description: as §1, §2

[13] = test system: Streptococcus pneumoniae TH-662 (ermAM methylase); assay: Antibacterial activity test (agar dilution MIC); assay type: cell-based; conditions: agar plates, 37° C., about 20 hours
Description: as §1, §2

[14] = test system: resistant strains of Streptococcus pneumoniae; assay: Antibacterial activity test, resistant strains, comparison; assay type: cell-based; conditions: comparison of MIC values of Table 1-3; reversed versus natural configuration at 3-position
Description: as §1
as §2, with “A given volume of a culture broth for susceptibility measurement, which was prepared to contain a given cell numbers of bacteria to be tested, was inoculated to the agar plates containing the test drug by using a micro planter (Sakuma Seisakusho). After the inoculation, cultivation was carried out at 37° C. for about 20 hours.” left out

[15] = read-out: Minimum inhibitory concentration (MIC)

SMILES	Minimum inhibitory concentration (MIC) [1] [µg/mL]	Minimum inhibitory concentration (MIC) [2] [µg/mL]	Minimum inhibitory concentration (MIC) [3] [µg/mL]	Minimum inhibitory concentration (MIC) [4] [µg/mL]	Minimum inhibitory concentration (MIC) [5] [µg/mL]	Minimum inhibitory concentration (MIC) [6] [µg/mL]	Minimum inhibitory concentration (MIC) [7] [µg/mL]	Minimum inhibitory concentration (MIC) [8] [µg/mL]	Minimum inhibitory concentration (MIC) [11] [µg/mL]	Minimum inhibitory concentration (MIC) [12] [µg/mL]	Minimum inhibitory concentration (MIC) [13] [µg/mL]	other results
CCCC(=O)OC1C(C)OC(OC2C(C)OC(OC3C(CC=O)CC(C)C(O)C=CC=CCC(C)OC(=O)CC(OC)C3OC)C(O)C2N(C)C)CC1(C)OC(=O)CC (centres unmarked) [Example 3, 3-O-Methylrokitamycin]	3.13 (≈ 3.72 µM)	0.025 (≈ 0.0297 µM)	0.20 (≈ 0.238 µM)	0.10 (≈ 0.119 µM)	0.20 (≈ 0.238 µM)	0.05 (≈ 0.0594 µM)	0.10 (≈ 0.119 µM)	0.025 (≈ 0.0297 µM)	–	–	–	Stability in rat plasma (remaining antibacterial activity with time) [9]: more stable in the rat plasma than RKM; enhancement of the antibacterial activity compared to RKM and LM-A7 [10]: two-fold
C=CCOC1CC(=O)OC(C)CC=CC=CC(O)C(C)CC(CC=O)C(OC2OC(C)C(OC3CC(C)(OC(=O)CC)C(OC(=O)CCC)C(C)O3)C(N(C)C)C2O)C1OC (centres unmarked) [Example 5, 3-O-Allylrokitamycin]	6.25 (≈ 7.2 µM)	0.10 (≈ 0.115 µM)	0.39 (≈ 0.449 µM)	0.20 (≈ 0.23 µM)	0.39 (≈ 0.449 µM)	0.20 (≈ 0.23 µM)	0.20 (≈ 0.23 µM)	0.10 (≈ 0.115 µM)	–	–	–	–
COC1CC(=O)OC(C)CC=CC=CC(O)C(C)CC(CC=O)C(OC2OC(C)C(OC3CC(C)(OC)C(OCCC(C)C)C(C)O3)C(N(C)C)C2O)C1OC (centres unmarked) [Example 20, 4″-O-Isoamyl-3,3″-di-O-methylleucomycin V]	1.56 (≈ 1.95 µM)	0.05 (≈ 0.0625 µM)	0.39 (≈ 0.487 µM)	0.20 (≈ 0.25 µM)	0.39 (≈ 0.487 µM)	0.10 (≈ 0.125 µM)	0.10 (≈ 0.125 µM)	0.10 (≈ 0.125 µM)	–	–	–	antibacterial activity compared with the compound described in Example 7 of U.S. Pat. No. 5,407,918 ([10]; comparison of MIC values of Table 1-2): almost the same antibacterial activity
CCC(=O)OC1C(C)OC(OC2C(C)OC(OC3C(CC=O)CC(C)C(O)C=CC=CCC(C)OC(=O)CC(OC)C3OC)C(O)C2N(C)C)CC1(C)O (centres unmarked) [Example 23, 3-O-Methylleucomycin A7]	1.56 (≈ 2.02 µM)	0.05 (≈ 0.0648 µM)	0.78 (≈ 1.01 µM)	0.20 (≈ 0.259 µM)	0.20 (≈ 0.259 µM)	0.10 (≈ 0.13 µM)	0.10 (≈ 0.13 µM)	0.10 (≈ 0.13 µM)	–	–	–	enhancement of the antibacterial activity compared to RKM and LM-A7 [10]: two-fold
CCC(=O)OC1C(C)OC(OC2C(C)OC(OC3C(CC=O)CC(C)C(O)C=CC=CCC(C)OC(=O)CC(OC(=O)c4ccccc4)C3OC)C(O)C2N(C)C)CC1(C)O (centres unmarked) [Example 25, 3-O-Benzoylleucomycin A7]	6.25 (≈ 7.25 µM)	–	1.56 (≈ 1.81 µM)	0.39 (≈ 0.452 µM)	–	–	0.39 (≈ 0.452 µM)	–	0.39 (≈ 0.452 µM)	>100	>100	–
CCC(=O)OC1C(C)OC(OC2C(C)OC(OC3C(CC=O)CC(C)C(O)C=CC=CCC(C)OC(=O)CC(OC(=O)c4ccccc4)C3OC)C(O)C2N(C)C)CC1(C)O (stereo not drawn) [Example 48, 3-Epi-3-O-benzoylleucomycin A7]	6.25 (≈ 7.25 µM)	–	0.78 (≈ 0.905 µM)	0.39 (≈ 0.452 µM)	0.78 (≈ 0.905 µM)	–	0.20 (≈ 0.232 µM)	–	0.20 (≈ 0.232 µM)	25 (≈ 29 µM)	25 (≈ 29 µM)	antibacterial activity against the resistant strains of Streptococcus pneumoniae, compared with Example 25 [14]: improvement in antibacterial activity
CCC(=O)O[C@H]1[C@H](C)O[C@@H](O[C@H]2[C@H](N(C)C)[C@@H](O)[C@H](O[C@H]3[C@@H](CC=O)C[C@@H](C)[C@@H](O)/C=C/C=C/C[C@@H](C)OC(=O)C[C@@H](O)[C@@H]3OC)O[C@@H]2C)C[C@@]1(C)O [LM-A7, leucomycin-A7, reference compound]	1.56 (≈ 2.06 µM)	0.10 (≈ 0.132 µM)	0.78 (≈ 1.03 µM)	0.39 (≈ 0.515 µM)	0.39 (≈ 0.515 µM)	0.20 (≈ 0.264 µM)	0.20 (≈ 0.264 µM)	0.10 (≈ 0.132 µM)	0.39 (≈ 0.515 µM)	>100	>100	–
CCCC(=O)O[C@H]1[C@H](C)O[C@@H](O[C@H]2[C@H](N(C)C)[C@@H](O)[C@H](O[C@H]3[C@@H](CC=O)C[C@@H](C)[C@@H](O)/C=C/C=C/C[C@@H](C)OC(=O)C[C@@H](O)[C@@H]3OC)O[C@@H]2C)C[C@@]1(C)OC(=O)CC [RKM, rokitamycin, reference compound]	–	–	–	–	–	–	–	–	–	–	–	MIC [1, 15]: 1.56 µg/mL (≈ 1.88 µM); MIC [2, 15]: 0.05 µg/mL (≈ 0.0604 µM); MIC ([3]; W0500, agar plates, read-out: Minimum inhibitory concentration (MIC)): 0.2 µg/mL (≈ 0.242 µM); MIC [4, 15]: 0.2 µg/mL (≈ 0.242 µM); MIC ([5]; Staphylococcus aureus, 20 h, read-out: Minimum inhibitory concentration (MIC)): 0.39 µg/mL (≈ 0.471 µM); MIC ([6]; DP1TYPEI, read-out: Minimum inhibitory concentration (MIC)): 0.1 µg/mL (≈ 0.121 µM); MIC ([7]; Streptococcus pneumoniae, 20 h, read-out: Minimum inhibitory concentration (MIC)): 0.2 µg/mL (≈ 0.242 µM); MIC [8, 15]: 0.05 µg/mL (≈ 0.0604 µM)
